Where two headings read alike, the source gives them in different places.
Tests used:
Assay in all cases: biochemical
Set-up in all cases: Reaction Biology 371-kinase panel at Km ATP, per cent enzyme activity relative to DMSO, single dose in duplicate
CAMKK1 = CAMKK1 (Homo sapiens, UniProt Q8N5S9); settings: duplicate measurements, Km ATP
How it was run: (§1)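 Percent kinase activity relative to vehicle (DMSO) is reported for a 371-kinase in vitro panel at 300 nM compound; IC50 values derive from variable-slope sigmoidal fits with the lower plateau fixed at 0.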

TNK1 = biological target: T1, TNK1 (Homo sapiens, UniProt Q13470); settings: duplicate measurements, Km ATP
T1 sequence (Q13470 1-666): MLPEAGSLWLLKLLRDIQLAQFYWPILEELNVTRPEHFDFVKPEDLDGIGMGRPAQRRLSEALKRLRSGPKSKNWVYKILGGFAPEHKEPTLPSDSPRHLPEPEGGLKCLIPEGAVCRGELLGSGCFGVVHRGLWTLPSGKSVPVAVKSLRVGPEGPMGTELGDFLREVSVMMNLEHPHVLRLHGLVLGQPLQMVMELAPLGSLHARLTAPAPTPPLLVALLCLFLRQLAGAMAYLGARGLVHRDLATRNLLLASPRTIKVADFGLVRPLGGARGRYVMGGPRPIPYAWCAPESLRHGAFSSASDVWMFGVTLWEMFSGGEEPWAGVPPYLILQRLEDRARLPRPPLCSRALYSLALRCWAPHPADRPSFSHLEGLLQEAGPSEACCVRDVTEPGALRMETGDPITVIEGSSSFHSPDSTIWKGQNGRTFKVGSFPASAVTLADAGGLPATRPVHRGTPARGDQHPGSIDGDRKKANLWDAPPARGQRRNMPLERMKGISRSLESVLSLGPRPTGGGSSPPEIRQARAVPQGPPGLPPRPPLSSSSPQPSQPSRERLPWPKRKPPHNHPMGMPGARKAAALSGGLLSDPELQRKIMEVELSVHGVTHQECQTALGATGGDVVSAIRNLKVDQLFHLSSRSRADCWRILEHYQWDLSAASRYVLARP
How it was run: as §1

EPHB2 = EPHB2 (Homo sapiens, UniProt P29323); settings: duplicate measurements, Km ATP
How it was run: as §1

EPHA2 = EPHA2 (Homo sapiens, UniProt P29317); settings: duplicate measurements, Km ATP
How it was run: as §1

GRK3 = GRK3 (Homo sapiens, UniProt P35626); settings: duplicate measurements, Km ATP
How it was run: as §1

TRKB = biological target: T2, TRKB (Homo sapiens, UniProt Q16620); settings: duplicate measurements, Km ATP
T2 construct: gene NTRK2
How it was run: as §1

SIK1 = SIK1 (Homo sapiens, UniProt P57059); settings: duplicate measurements, Km ATP
How it was run: as §1

SYK = SYK (Homo sapiens, UniProt P43405); settings: duplicate measurements, Km ATP
How it was run: as §1

ARK5/NUAK1 = ARK5/NUAK1 (Homo sapiens, UniProt O60285); settings: duplicate measurements, Km ATP; read-out: % Enzyme Activity (relative to DMSO controls) / TP-0005801 (0.3µM) / Data 1
How it was run: as §1

CDK2/cyclin A = CDK2/cyclin A (Homo sapiens, UniProt P24941); settings: duplicate measurements, Km ATP
How it was run: as §1

WNK3 = WNK3 (Homo sapiens, UniProt Q9BYP7); settings: duplicate measurements, Km ATP
How it was run: as §1

CDK16/cyclin Y (PCTAIRE) = CDK16/cyclin Y (PCTAIRE) (Homo sapiens, UniProt Q00536); settings: duplicate measurements, Km ATP
How it was run: as §1

HIPK4 = HIPK4 (Homo sapiens, UniProt Q8NE63); settings: duplicate measurements, Km ATP
How it was run: as §1

TAOK1 = TAOK1 (Homo sapiens, UniProt Q7L7X3); settings: duplicate measurements, Km ATP
How it was run: as §1

PKAcg = biological target: T3, PKAcg (Homo sapiens, UniProt P22612); settings: duplicate measurements, Km ATP
T3 construct: gene PRKACG
How it was run: as §1

GRK2 = GRK2 (Homo sapiens, UniProt P25098); settings: duplicate measurements, Km ATP
How it was run: as §1

[1] = read-out: % Enzyme Activity (relative to DMSO controls) / TP-0005801 (0.3µM) / Data 1
[2] = read-out: % Enzyme Activity (relative to DMSO controls) / TP-0005801 (0.3µM) / Data 2

T2 sequence (Q16620 whole entry): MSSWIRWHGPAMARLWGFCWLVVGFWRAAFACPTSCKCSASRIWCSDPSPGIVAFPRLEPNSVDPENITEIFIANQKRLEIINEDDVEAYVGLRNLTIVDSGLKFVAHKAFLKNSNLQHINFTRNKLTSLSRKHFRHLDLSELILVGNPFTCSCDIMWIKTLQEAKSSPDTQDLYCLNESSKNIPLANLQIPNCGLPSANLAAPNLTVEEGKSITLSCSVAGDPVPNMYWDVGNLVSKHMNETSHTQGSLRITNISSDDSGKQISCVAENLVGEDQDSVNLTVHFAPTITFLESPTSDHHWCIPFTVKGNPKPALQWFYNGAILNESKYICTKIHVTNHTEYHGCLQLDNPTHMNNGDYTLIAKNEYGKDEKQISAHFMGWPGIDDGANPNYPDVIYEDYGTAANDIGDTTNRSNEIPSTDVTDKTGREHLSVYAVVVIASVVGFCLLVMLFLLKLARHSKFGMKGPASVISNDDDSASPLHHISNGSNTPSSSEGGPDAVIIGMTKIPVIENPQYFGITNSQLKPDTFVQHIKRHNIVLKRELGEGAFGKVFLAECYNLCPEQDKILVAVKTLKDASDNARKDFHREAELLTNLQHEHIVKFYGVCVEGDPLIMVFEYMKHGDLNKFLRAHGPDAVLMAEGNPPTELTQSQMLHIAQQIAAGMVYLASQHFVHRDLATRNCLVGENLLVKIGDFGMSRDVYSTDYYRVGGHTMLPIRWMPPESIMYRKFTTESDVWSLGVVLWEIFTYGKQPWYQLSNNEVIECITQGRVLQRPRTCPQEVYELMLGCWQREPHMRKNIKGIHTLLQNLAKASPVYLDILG
Sequence of GRK2 (P25098 whole entry): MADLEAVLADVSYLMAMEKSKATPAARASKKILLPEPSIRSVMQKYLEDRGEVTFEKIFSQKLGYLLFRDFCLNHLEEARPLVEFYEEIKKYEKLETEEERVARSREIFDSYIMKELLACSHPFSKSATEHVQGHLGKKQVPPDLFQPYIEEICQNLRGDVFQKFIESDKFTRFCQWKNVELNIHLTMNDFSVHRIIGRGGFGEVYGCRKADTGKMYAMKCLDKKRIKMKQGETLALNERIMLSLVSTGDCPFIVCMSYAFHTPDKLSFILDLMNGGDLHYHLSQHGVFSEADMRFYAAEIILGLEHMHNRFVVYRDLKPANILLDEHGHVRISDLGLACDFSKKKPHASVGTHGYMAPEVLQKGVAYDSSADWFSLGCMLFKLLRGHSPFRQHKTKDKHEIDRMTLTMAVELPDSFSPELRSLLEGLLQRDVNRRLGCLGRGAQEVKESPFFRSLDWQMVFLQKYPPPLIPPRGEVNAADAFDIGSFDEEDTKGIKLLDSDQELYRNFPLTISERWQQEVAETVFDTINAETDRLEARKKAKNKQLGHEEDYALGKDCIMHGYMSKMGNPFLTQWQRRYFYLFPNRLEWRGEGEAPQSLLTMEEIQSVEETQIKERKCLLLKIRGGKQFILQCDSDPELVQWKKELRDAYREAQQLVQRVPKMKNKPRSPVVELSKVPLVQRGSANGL
Sequence of EPHB2 (P29323 whole entry): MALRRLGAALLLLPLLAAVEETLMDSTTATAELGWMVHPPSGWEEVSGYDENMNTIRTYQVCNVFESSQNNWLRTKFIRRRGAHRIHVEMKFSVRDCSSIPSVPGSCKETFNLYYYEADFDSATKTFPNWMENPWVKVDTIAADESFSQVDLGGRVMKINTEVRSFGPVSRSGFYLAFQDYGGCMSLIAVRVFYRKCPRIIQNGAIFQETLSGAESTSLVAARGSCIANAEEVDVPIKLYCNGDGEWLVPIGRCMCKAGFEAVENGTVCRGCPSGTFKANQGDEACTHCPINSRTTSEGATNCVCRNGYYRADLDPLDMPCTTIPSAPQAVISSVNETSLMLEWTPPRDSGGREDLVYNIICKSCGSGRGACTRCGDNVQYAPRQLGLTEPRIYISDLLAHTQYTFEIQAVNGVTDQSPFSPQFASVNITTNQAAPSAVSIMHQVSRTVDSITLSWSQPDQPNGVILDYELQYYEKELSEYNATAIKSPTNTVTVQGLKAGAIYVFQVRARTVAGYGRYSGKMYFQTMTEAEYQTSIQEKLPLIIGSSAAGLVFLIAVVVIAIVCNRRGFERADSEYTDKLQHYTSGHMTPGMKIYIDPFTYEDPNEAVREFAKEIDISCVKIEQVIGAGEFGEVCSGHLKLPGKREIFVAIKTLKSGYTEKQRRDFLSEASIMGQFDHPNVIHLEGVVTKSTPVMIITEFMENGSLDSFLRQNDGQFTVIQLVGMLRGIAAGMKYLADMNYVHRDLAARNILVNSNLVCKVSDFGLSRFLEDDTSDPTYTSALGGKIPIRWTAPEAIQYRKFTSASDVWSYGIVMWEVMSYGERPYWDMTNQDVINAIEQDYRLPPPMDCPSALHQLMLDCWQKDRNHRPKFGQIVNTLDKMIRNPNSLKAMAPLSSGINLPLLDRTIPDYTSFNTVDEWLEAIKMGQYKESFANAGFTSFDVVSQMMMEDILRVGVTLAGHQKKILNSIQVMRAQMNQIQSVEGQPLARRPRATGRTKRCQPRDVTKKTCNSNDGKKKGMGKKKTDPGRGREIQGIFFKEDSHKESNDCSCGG
Sequence of SIK1 (P57059 whole entry): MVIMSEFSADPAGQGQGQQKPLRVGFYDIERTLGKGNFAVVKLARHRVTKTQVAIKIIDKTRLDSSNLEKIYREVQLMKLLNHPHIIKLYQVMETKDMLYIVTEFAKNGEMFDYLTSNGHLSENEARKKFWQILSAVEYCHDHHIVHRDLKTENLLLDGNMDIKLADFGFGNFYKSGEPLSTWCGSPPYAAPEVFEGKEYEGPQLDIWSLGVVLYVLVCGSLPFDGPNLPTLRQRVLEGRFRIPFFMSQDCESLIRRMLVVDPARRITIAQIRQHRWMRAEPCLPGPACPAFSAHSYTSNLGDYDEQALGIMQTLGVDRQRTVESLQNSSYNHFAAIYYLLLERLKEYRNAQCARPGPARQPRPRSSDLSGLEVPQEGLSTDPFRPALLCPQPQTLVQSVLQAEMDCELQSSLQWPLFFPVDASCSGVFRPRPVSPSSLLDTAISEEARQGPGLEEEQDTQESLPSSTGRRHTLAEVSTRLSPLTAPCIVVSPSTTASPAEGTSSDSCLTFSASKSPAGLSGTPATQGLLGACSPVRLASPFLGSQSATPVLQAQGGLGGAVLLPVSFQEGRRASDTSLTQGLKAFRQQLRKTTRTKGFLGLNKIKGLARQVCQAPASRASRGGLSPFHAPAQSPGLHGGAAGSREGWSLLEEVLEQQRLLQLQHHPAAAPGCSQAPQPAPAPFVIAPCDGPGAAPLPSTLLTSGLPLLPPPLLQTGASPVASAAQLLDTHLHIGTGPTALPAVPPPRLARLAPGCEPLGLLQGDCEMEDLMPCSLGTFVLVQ
Sequence of CDK16/cyclin Y (PCTAIRE) (Q00536 whole entry): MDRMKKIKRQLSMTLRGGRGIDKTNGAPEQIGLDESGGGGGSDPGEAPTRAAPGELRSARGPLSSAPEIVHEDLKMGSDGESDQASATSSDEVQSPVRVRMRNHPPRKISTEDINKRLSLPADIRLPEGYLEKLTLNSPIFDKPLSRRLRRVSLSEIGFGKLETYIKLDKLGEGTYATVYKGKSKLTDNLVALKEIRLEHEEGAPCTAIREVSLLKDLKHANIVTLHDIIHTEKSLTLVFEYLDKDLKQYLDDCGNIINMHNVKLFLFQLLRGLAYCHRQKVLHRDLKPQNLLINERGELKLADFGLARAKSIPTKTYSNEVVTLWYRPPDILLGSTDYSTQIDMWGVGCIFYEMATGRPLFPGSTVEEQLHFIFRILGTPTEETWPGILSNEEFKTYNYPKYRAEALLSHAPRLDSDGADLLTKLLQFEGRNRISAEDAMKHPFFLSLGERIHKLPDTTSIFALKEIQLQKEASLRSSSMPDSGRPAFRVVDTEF
Sequence of CDK16/cyclin Y (PCTAIRE) (Q8ND76 whole entry partner): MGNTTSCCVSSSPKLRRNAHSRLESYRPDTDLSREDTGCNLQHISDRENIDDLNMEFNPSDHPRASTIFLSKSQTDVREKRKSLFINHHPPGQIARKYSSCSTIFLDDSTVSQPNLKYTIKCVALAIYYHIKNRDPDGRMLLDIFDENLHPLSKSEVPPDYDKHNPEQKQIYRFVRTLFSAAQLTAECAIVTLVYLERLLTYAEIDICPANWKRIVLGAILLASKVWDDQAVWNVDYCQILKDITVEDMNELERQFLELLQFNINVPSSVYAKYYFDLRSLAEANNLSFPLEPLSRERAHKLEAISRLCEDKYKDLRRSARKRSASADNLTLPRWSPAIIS
Sequence of HIPK4 (Q8NE63 whole entry): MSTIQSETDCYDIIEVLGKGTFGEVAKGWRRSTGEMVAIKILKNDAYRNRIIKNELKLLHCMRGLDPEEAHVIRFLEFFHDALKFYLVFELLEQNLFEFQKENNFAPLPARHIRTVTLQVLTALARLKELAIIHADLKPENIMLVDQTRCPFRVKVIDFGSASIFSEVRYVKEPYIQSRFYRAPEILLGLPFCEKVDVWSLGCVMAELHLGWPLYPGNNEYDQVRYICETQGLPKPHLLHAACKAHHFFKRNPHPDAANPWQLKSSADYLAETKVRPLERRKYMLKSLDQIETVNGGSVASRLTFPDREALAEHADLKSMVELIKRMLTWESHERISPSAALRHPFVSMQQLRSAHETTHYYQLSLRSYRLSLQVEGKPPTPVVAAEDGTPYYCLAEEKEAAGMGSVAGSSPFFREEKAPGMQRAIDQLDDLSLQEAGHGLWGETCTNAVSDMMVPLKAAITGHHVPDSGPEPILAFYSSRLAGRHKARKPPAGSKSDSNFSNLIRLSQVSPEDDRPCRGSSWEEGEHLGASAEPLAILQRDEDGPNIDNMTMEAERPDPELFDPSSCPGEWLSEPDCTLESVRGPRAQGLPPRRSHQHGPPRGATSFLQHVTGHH

remaining activity at 0.3 µM (CAMKK1; [1]): 77.1%
remaining activity at 0.3 µM (CAMKK1; [2]): 74%
remaining activity at 0.3 µM (TNK1; [1]): 0.98%
remaining activity at 0.3 µM (TNK1; [2]): 0.83%
remaining activity at 0.3 µM (EPHB2; [1]): 86.4%
remaining activity at 0.3 µM (EPHB2; [2]): 85.6%
remaining activity at 0.3 µM (EPHA2; [1]): 98.3%
remaining activity at 0.3 µM (EPHA2; [2]): 95.9%
remaining activity at 0.3 µM (GRK3; [1]): 93.9%
remaining activity at 0.3 µM (GRK3; [2]): 93%
remaining activity at 0.3 µM (TRKB; [1]): 96.1%
remaining activity at 0.3 µM (TRKB; [2]): 95.9%
remaining activity at 0.3 µM (SIK1; [1]): 94.2%
remaining activity at 0.3 µM (SIK1; [2]): 92.8%
remaining activity at 0.3 µM (SYK; [1]): 77.6%
remaining activity at 0.3 µM (SYK; [2]): 77.5%
remaining activity at 0.3 µM (ARK5/NUAK1): 14.2%
remaining activity at 0.3 µM (CDK2/cyclin A; [1]): 90.8%
remaining activity at 0.3 µM (CDK2/cyclin A; [2]): 87.6%
remaining activity at 0.3 µM (WNK3; [1]): 87.5%
remaining activity at 0.3 µM (WNK3; [2]): 86.5%
remaining activity at 0.3 µM (CDK16/cyclin Y (PCTAIRE); [1]): 99.8%
remaining activity at 0.3 µM (CDK16/cyclin Y (PCTAIRE); [2]): 97.2%
remaining activity at 0.3 µM (HIPK4; [1]): 79.6%
remaining activity at 0.3 µM (HIPK4; [2]): 78.6%
remaining activity at 0.3 µM (TAOK1; [1]): 73.3%
remaining activity at 0.3 µM (TAOK1; [2]): 68.3%
remaining activity at 0.3 µM (PKAcg; [1]): 95.5%
remaining activity at 0.3 µM (PKAcg; [2]): 92.1%
remaining activity at 0.3 µM (GRK2; [1]): 93%
remaining activity at 0.3 µM (GRK2; [2]): 91.7%
SMILES: COc1cc(N2CCN(C)CC2)c(C)cc1Nc1ncc(Br)c(Nc2cccnc2N(C)C)n1 [TP-5801]
